Source: patent US6875761B2 (Eisai Co., Ltd., priority 1997, dated 2005)
Counter-ions that a name gives are not always drawn.

How the values were obtained:
[1] = biological target: T1, serotonin 1A receptor (Rattus norvegicus, UniProt P19327); experiment: Binding test on [3H] 8-hydroxy-dipropylaminotetralin, hippocampus receptor fraction; design: species or system SD rats; settings: rat hippocampus receptor fraction, 0.5 nM [3H] 8-OH-DPAT, room temperature 30 min; read-out: 5HT1
T1 construct: To the receptor fraction of the hippocampus were added a test compound and 0.5 nM of [^3H]; 8-hydroxy-dipropylaminotetralin; from tissue; host or cells: rat hippocampus membrane fraction
T1 sequence (P19327 1-422): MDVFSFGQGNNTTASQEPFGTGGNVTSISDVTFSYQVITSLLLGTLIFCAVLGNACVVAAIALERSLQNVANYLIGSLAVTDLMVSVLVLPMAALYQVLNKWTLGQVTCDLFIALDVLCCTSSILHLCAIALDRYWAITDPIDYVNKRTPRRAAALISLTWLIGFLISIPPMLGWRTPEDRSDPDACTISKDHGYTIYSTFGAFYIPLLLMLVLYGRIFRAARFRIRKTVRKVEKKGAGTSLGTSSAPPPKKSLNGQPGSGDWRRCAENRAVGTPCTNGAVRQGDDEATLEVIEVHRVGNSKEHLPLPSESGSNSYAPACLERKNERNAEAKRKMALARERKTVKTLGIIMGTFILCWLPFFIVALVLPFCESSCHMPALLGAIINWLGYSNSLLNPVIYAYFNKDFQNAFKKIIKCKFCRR

[2] = biological target: T2, serotonin 2 receptor (Rattus norvegicus, UniProt P14842); experiment: Binding test on [3H] ketanserin, cerebral cortex receptor fraction; design: species or system SD rats; settings: 0.3 nM [3H] ketanserin, 37° C. 15 min, read-out: 5HT2
T2 construct: To the receptor fraction of the cerebral cortex were added a test compound and 0.3 nM of [^3H] ketanserin; from tissue; host or cells: rat cerebral cortex membrane fraction
T2 sequence (P14842 whole entry): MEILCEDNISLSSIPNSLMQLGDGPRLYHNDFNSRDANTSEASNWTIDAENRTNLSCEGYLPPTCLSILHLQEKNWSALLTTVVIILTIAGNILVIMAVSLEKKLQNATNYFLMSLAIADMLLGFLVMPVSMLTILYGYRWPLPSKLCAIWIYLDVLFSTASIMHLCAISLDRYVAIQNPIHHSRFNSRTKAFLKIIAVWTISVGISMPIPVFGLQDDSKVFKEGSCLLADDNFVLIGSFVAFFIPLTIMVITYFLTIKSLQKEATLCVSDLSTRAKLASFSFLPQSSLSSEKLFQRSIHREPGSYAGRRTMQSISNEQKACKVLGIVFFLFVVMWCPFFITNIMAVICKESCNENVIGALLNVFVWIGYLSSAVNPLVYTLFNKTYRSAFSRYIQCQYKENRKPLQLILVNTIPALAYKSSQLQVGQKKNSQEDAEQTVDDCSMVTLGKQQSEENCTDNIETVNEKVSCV

| Ki [1] [nM] | Ki [2] [nM] | SMILES |
| --- | --- | --- |
| 75.4 | 40 | CCN1CCN(c2nc(-c3ccc(C(O)CC(C)C)cc3)cc3ccsc23)CC1 (stereo not drawn) [Example 255, 7-(1-ethylpiperazin-4-yl)-5-[4-(1-hydroxy-3-methylbutyl)phenyl]thieno[2,3-c]pyridine Dihydrochloride] |
| 9.22 | 19.5 | CCN1CCN(c2nc(-c3ccc(C(F)CCO)cc3)cc3ccsc23)CC1 (stereo not drawn) [Example 256, 7-(1-ethylpiperazin-4-yl)-5-[4-(3-hydroxy-1-fluoropropyl)phenyl]thieno[2,3-c]pyridine Dihydrochloride] |
| 12.6 | 23.2 | CCN1CCN(c2nc(-c3ccc(CCCO)c(Cl)c3)cc3ccsc23)CC1 [Example 257, 5-[4-(3-hydroxypropyl)-3-chlorophenyl]-7-(4-ethylpiperazin-1-yl)thieno[2,3-c]pyridine Oxalate] |
| 24.7 | 35.1 | CCN1CCN(c2nc(-c3cccc(OCCO)c3)cc3ccsc23)CC1 [Example 258, 7-(1-ethylpiperazin-4-yl)-5-[3-(2-hydroxyethoxy)phenyl]thieno[2,3-c]pyridine Dihydrochloride] |
| 67.8 | 0.54 | CCN1CCN(c2nc(-c3ccc(OCC(C)(C)O)cc3)cc3ccsc23)CC1 [Example 260, 7-(1-Ethylpiperazin-4-yl)-5-[4-(2-hydroxy-2-methylpropoxy)phenyl]thieno[2,3-c]pyridine dihydrochloride] |
| 53.7 | 0.06 | CCN1CCN(c2nc(-c3ccc(OC)c(CCCO)c3)cc3ccsc23)CC1 [Example 261, 5-[3-(3-hydroxypropyl)-4-methoxyphenyl]-7-(4-ethylpiperazin-1-yl)thieno[2,3-c]pyridine Oxalate] |
| 9.04 | 0.25 | CCN1CCN(c2nc(-c3ccc(CCCO)c(C#N)c3)cc3ccsc23)CC1 [Example 262, 5-[4-(3-hydroxypropyl)-3-cyanophenyl]-7-(4-ethylpiperazin-1-yl)thieno[2,3-c]pyridine Oxalate] |
| 6.42 | 0.89 | CCN1CCN(c2nc(-c3ccc(N4CCOCC4)nc3)cc3ccsc23)CC1 [Example 263, 5-[2-(4-morpholinyl)pyridin-5-yl]-7-(4-ethylpiperazin-1-yl)thieno[2,3-c]pyridine Hydrochloride] |
| 61.3 | 3.34 | CCN1CCN(c2nc(-c3ccc(N4CCSCC4)nc3)cc3ccsc23)CC1 [Example 264, 5-[2-(4-thiomorpholinyl)pyridin-5-yl]-7-(4-ethylpiperazine-1-yl)thieno[2,3-c]pyridine Hydrochloride] |
| 9.73 | 114 | CCN1CCN(c2nc(-c3ccc(N4CCC(O)CC4)nc3)cc3ccsc23)CC1 [Example 265, 5-[2-(4-hydroxypiperidin-1-yl)pyridin-5-yl]-7-(4-ethylpiperazin-1-yl)thieno[2,3-c]pyridine Hydrochloride] |
| 97.3 | 13.8 | CCN1CCN(c2nc(-c3ccc(C4=CCOCC4)cc3)cc3ccsc23)CC1 [Example 266, 5-[4-(5,6-dihydro-2H-pyran-4-yl)phenyl]-7-(4-ethylpiperazin-1-yl)thieno[2,3-c]pyridine Hydrochloride] |
| 16.5 | 86 | CCN1CCN(c2nc(-c3ccc(OCCO)nc3)cc3ccsc23)CC1 [Example 268, 5-[2-(2-hydroxyethoxy)pyridin-5-yl]-7-(4-ethylpiperazin-1-yl)thieno[2,3-c]pyridine Oxalate] |
| 15.5 | 58.4 | CCN1CCN(c2nc(-c3ccc(OCCOC)nc3)cc3ccsc23)CC1 [Example 269, 5-[2-(2-methoxyethoxy)pyridin-5-yl]-7-(4-ethylpiperazin-1-yl)-thieno[2,3-c]pyridine hydrochloride] |
| 43 | 30.3 | CCN1CCN(c2nc(-c3ccc(C4=CCC(O)CC4)cc3)cc3ccsc23)CC1 (stereo not drawn) [Example 270, 5-[4-(4-hydroxycyclohexen-1-yl)phenyl]-7-(4-ethylpiperazin-1-yl)thieno[2,3-c]pyridine hydrochloride] |
| 160 | 22.4 | CCN1CCN(c2nc(-c3ccc(C(=O)CC(C)C)cc3)cc3ccsc23)CC1 [Example 272, 7-(1-ethylpiperazin-4-yl)-5-[4-(3-methylbutanoyl)phenyl]thieno[2,3-c]pyridine dihydrochloride] |
| 51.4 | 9.11 | CCN1CCN(c2nc(-c3ccc(C(=O)NC4CCCCC4)cc3)cc3ccsc23)CC1 [Example 273, dihydrochloride] |

The next lines start with the molecule.

| SMILES | Ki [1] [nM] | Ki [2] [nM] |
| --- | --- | --- |
| CCN1CCN(c2nc(-c3ccc(OCC(C)(C)O)cc3)cc3cccnc23)CC1 [Example 250, 8-(1-ethylpiperazin-4-yl)-6-[4-(2-hydroxy-2-methylpropoxy)phenyl]-1,7-naphthyridine Dihydrochloride] | 123 | 7.67 |
| CN1CCN(c2nc(-c3ccc(OCCO)cc3)cc3ccsc23)CC1 [Example 253, 5-[4-(2-hydroxyethoxy)phenyl]-7-(4-methylpiperazin-1-yl)thieno[2,3-c]pyridine Hydrochloride] | 75.4 | 5.98 |
| CCCCC(O)c1ccc(-c2cc3ccsc3c(N3CCN(CC)CC3)n2)cc1 (stereo not drawn) [Example 254, 7-(1-ethylpiperazin-4-yl)-5-[4-(1-hydroxypentyl)phenyl]thieno[2,3-c]pyridine Dihydrochloride] | 59.7 | 29.2 |
| CCN1CCN(c2nc(-c3ccc(OC(C)COC)nc3)cc3ccsc23)CC1 (stereo not drawn) [Example 267, 5-[2-(2-methoxyethoxy-2-methyl)pyridin-5-yl]-7-(4-ethylpiperazin-1-yl)thieno[2,3-c]pyridine Hydrochloride] | 10.4 | 68.7 |
| COc1ccc(-c2cc3ccsc3c(N3CCN(CCO)CC3)n2)cc1 [Example 276, 5-(4-methoxyphenyl)-7-[4-(2-hydroxyethyl)piperazin-1-yl]thieno[2,3-c]pyridine hydrochloride] | 160 | 0.45 |
| CCN1CCN(c2nc(-c3ccc(OC)cc3)cc3cscc23)CC1 [Example 277, 4-(4-ethylpiperazin-1-yl)-6-(4-methoxyphenyl)thieno[3,4-c]pyridine oxalate] | 71.4 | 52.1 |
| CCN1CCN(c2nc(-c3ccc(OCCO)cc3)cc3cscc23)CC1 [Example 278, 4-(4-ethylpiperazin-1-yl)-6-[4-(2-hydroxyethoxy)phenyl]thieno-[3,4-c]pyridine oxalate] | 41.3 | 4.61 |
| CN1CCN(c2nc(-c3ccc(OCCO)cc3)cc3sccc23)CC1 [Example 279, 4-(4-methylpiperazin-1-yl)-6-[4-(2-hydroxyethoxy)phenyl]thieno[3,2-c]pyridine hydrochloride] | 76.4 | 1.44 |
| CCC(O)c1ccc(-c2cc3sccc3c(N3CCN(CC)CC3)n2)cc1 (stereo not drawn) [Example 282, 4-(4-ethylpiperazin-1-yl)-6-[4-(1-hydroxypropyl)phenyl]thieno-[3,2-c]pyridine oxalate] | 10.8 | 6.46 |
| CCCC(O)c1ccc(-c2cc3sccc3c(N3CCN(CC)CC3)n2)cc1 (stereo not drawn) [Example 283, 4-(4-ethylpiperazin-1-yl)-6-[4-1-hydroxybutyl)phenyl]thieno[3,2-c]pyridine oxalate] | 5.71 | 6.43 |
| CCN1CCN(c2nc(-c3cccc(OCCO)c3)cc3sccc23)CC1 [Example 284, 4-(1-ethylpiperazin-4-yl)-6-[3-(2-hydroxyethoxy)phenyl]thieno-[3,2-c]pyridine dihydrochloride] | 91.9 | 75.9 |
| CCN1CCN(c2nc(-c3ccc(CCC(C)O)cc3)cc3sccc23)CC1 (stereo not drawn) [Example 285, 4-(1-ethylpiperazin-4-yl)-6-[4-(3-hydroxybutyl)phenyl]thieno[3,2-c]pyridine hydrochloride] | 22.2 | 1.96 |
| CCN1CCN(c2nc(-c3ccc(OCC(C)O)cc3)cc3sccc23)CC1 (stereo not drawn) [Example 287, 4-(4-ethylpiperazin-1-yl)-6-[4-(2-hydroxypropoxy)phenyl]thieno[3,2-c]pyridine] | 27.9 | 0.87 |
| CN1CCN(c2nc(-c3ccc(OCC(C)(C)O)cc3)cc3sccc23)CC1 [Example 288, 6-[4-(2-methyl-2-hydroxypropoxy)phenyl]-4-(4-methylpiperazin-1-yl)thieno[3,2-c]pyridine hydrochloride] | 80.9 | 0.14 |
| CCN1CCN(c2nc(-c3ccc(OCC(C)(C)O)cc3)cc3sccc23)CC1 [Example 290, 6-[4-(2-methyl-2-hydroxypropoxy)phenyl]-4-(4-ethylpiperazin-1-yl)thieno[3,2-c]pyridine dihydrochloride] | 54.7 | 1.35 |
| CCN1CCN(c2nc(-c3ccc(CCC(C)(C)O)cc3)cc3sccc23)CC1 [Example 291, 4-[4-ethylpiperazin-1-yl)-6-[4-(3-hydroxy-3-methylbutyl)phenyl]thieno[3,2-c]pyridine dihydrochloride] | 43.3 | 1.44 |
| CCN1CCN(c2nc(-c3ccc(OCCCC(C)(C)O)cc3)cc3sccc23)CC1 [Example 292, 6-[4-(4-methyl-4-hydroxypentyloxy)phenyl]-4-(4-ethylpiperazin-1-yl)thieno[3,2-c]pyridine] | 68.6 | 22.4 |
